# Assay results from ChEMBL document CHEMBL6177932 (J Med Chem, 2024).
# Calls of active or inactive are those of the source. The rule behind the calls is not given here.
# How the values were obtained:
# [1] = biological target: T1, Protein deacetylase HDAC6 (Mus musculus) (UniProt Q9Z2V5); assay: Inhibition of HDAC6 in mouse 4T1 cells assessed as induction of tubulin acetylation at 10 uM measured after 6 hrs by Western blot analysis; type: cell-based
# T1 sequence (whole entry): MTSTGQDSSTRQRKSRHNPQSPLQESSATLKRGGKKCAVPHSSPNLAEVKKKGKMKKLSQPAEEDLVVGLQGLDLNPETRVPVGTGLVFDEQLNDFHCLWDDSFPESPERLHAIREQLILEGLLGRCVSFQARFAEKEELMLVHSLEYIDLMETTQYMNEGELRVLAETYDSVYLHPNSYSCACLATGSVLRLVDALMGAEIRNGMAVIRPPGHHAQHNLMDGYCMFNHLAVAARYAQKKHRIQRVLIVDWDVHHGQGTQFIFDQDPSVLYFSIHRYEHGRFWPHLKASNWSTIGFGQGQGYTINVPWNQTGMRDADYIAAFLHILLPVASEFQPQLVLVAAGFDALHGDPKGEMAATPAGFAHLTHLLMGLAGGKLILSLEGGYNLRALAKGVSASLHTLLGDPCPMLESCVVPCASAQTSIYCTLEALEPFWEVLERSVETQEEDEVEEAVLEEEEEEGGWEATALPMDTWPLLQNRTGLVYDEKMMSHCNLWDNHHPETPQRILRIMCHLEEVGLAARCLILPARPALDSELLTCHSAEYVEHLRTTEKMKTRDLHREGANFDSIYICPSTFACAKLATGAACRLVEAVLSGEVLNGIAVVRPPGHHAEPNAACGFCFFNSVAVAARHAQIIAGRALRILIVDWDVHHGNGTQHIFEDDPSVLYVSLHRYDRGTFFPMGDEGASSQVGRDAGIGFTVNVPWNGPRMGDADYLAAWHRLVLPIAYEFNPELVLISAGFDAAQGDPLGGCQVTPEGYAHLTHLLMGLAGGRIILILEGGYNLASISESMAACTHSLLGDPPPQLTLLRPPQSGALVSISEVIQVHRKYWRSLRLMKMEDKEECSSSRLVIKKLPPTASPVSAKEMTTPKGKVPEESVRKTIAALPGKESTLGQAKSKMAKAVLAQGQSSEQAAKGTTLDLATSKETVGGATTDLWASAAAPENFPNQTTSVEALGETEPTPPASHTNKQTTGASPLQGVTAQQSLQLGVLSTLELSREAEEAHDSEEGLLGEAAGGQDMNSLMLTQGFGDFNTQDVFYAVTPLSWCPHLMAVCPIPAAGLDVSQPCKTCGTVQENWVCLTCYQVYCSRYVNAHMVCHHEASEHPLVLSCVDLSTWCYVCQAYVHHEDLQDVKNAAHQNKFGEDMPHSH
# [2] = system: 4T1; assay: Inhibition of class 1 HDAC in mouse 4T1 cells assessed as induction of H3K27 acetylation at 10 uM measured after 6 hrs by Western blot analysis; type: cell-based
# [3] = system: B16-F10; assay: Antitumor activity against mouse B16-F10 cells implanted in C57BL/6 mouse assessed as reduction in tumor burden at 5 mg/kg, ip administered every second day for 18 days; type: functional, organism-based; conditions: time 18.0 day
# [4] = Toxicity in mouse B16-F10 cells implanted C57BL/6 mouse assessed as effect on body weight at 5 mg/kg, ip administered daily for 28 days; type: organism-based; conditions: in vivo, time 28 day
# [5] = system: Mus musculus; assay: Immunomodulatory activity in mouse 4T1 cells implanted BALB/c mouse assessed as reduction in Ccl5 gene expression at 1.5 to 5 mg/kg, ip administered daily for 18 days by RT-qPCR analysis; type: functional, organism-based; conditions: dose 1.5-5 mg/kg, time 18.0 day
# [6] = Toxicity in 4T1 cells implanted BALB/c mouse assessed as stress at 1.5 to 5 mg/kg, ip administered daily for 18 days; type: organism-based; conditions: in vivo, 432 h, dose 1.5-5 mg/kg, time 18 day
# [7] = system: Mus musculus; assay: Immunomodulatory activity in mouse 4T1 cells implanted BALB/c mouse assessed as reduction in Ccl2 gene expression at 1.5 to 5 mg/kg, ip administered daily for 18 days by RT-qPCR analysis; type: functional, organism-based; conditions: dose 1.5-5 mg/kg, time 18.0 day
# [8] = system: Mus musculus; assay: Immunomodulatory activity in mouse 4T1 cells implanted BALB/c mouse assessed as induction of Il1a gene expression at 1.5 to 5 mg/kg, ip administered daily for 18 days by RT-qPCR analysis; type: functional, organism-based; conditions: dose 1.5-5 mg/kg, time 18.0 day
# [9] = biological target: T1, Protein deacetylase HDAC6 (Mus musculus); assay: Inhibition of HDAC6 in mouse 4TO7 cells assessed as induction of tubulin acetylation at 10 uM measured after 6 hrs by Western blot analysis; type: cell-based
# [10] = biological target: T2, Vitamin D3 receptor (Mus musculus) (UniProt P48281); assay: Agonist activity at VDR in mouse B16-F10 cells assessed as induction of Cyp24a1 gene at 1 to 10 uM measured after 24 hrs by RT-qPCR analysis; type: cell-based; conditions: filed as agonist, dose 1-10 µM
# T2 sequence (whole entry): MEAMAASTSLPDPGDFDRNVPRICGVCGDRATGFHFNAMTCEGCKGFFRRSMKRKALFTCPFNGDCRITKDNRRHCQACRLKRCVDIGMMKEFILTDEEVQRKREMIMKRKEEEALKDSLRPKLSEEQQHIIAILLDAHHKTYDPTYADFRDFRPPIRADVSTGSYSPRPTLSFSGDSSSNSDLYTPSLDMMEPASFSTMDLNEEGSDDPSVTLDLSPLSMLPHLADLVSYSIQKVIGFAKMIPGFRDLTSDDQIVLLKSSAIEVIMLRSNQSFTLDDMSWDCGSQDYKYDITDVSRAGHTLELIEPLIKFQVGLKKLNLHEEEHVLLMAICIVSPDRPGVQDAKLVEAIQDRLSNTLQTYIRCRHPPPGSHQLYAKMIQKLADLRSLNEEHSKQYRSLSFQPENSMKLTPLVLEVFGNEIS
# [11] = system: Mus musculus; assay: Immunomodulatory activity in mouse 4T1 cells implanted BALB/c mouse assessed as reduction in Cxcl10 gene expression at 1.5 to 5 mg/kg, ip administered daily for 18 days by RT-qPCR analysis; type: functional, organism-based; conditions: dose 1.5-5 mg/kg, time 18.0 day
# [12] = system: 4TO7; assay: Inhibition of class 1 HDAC in mouse 4TO7 cells assessed as induction of H3K27 acetylation at 10 uM measured after 6 hrs by Western blot analysis; type: cell-based
# [13] = system: 4T1; assay: Inhibition of class 1 HDAC in mouse 4T1 cells assessed as induction of H3K9 acetylation at 10 uM measured after 6 hrs by Western blot analysis; type: cell-based
compound,measurement,setting,value
CCC(CC)(c1ccc(C(=O)NCCCCC(=O)NO)cc1)c1ccc(OCC(O)C(C)(C)C)c(C)n1 (stereo not drawn),inhibition,[1],Active; Most Efficacious Than Saha
same,inhibition,[2],Active
same,Activity,[3],Active
same,Activity,[4],Non-toxic
same,Activity,[5],Active
same,Activity,[6],Non-toxic
same,Activity,[7],Active
same,Activity,[8],Active
same,inhibition,[9],Active; Induced Higher Levels Of Acetylation Than Saha
same,Activity,[10],Active
same,Activity,[11],Active
same,inhibition,[12],Active; Induced Higher Levels Of Acetylation Than Saha
same,inhibition,[13],Active
